Read-outs that look alike come from different tables or passages of the source.
Tests used:
[1] = intrinsic dissolving rates; type: physicochemical; settings: pH 1, pH 4.5 and pH 6.8; compared with valsartan
[2] = dissolving profile of film-coated tablet; type: physicochemical; settings: within 15 minutes
Protocol: In addition, an improved dissolving profile in a tablet can be assured. In studies of the dissolving profile, it was established that the calcium salt, especially the tetrahydrate thereof, is released by 100% from a film-coated tablet within 15 minutes.
In addition, an improved dissolving profile in a tablet can be assured. In studies of the dissolving profile, it was established that the magnesium salt, especially the hexahydrate thereof, is released by 100% from a film-coated tablet within 15 minutes.

[3] = N2 atmosphere, heating rate 10 K/min
[4] = 25° C., 4 hours
[5] = open container and sealed ampoule
[6] = hygroscopicity of the material obtained; type: physicochemical; settings: material as obtained
[7] = step 1, relative humidity 40% (cycle 40-90)
[8] = step 2, relative humidity 50% (cycle 40-90)
[9] = step 3, relative humidity 60% (cycle 40-90)
[10] = step 4, relative humidity 70% (cycle 40-90)
[11] = step 5, relative humidity 80% (cycle 40-90)
[12] = step 6, relative humidity 90% (cycle 40-90)
[13] = step 7, relative humidity 80% (first cycle 90-0)
[14] = step 8, relative humidity 70% (first cycle 90-0)
[15] = step 9, relative humidity 60% (first cycle 90-0)
[16] = step 10, relative humidity 50% (first cycle 90-0)
[17] = step 11, relative humidity 40% (first cycle 90-0)
[18] = step 12, relative humidity 30% (first cycle 90-0)
[19] = step 13, relative humidity 20% (first cycle 90-0)
[20] = step 14, relative humidity 10% (first cycle 90-0)
[21] = step 15, relative humidity 0% (first cycle 90-0)
[22] = step 16, relative humidity 10% (cycle 0-90)
[23] = step 17, relative humidity 20% (cycle 0-90)
[24] = step 18, relative humidity 30% (cycle 0-90)
[25] = step 19, relative humidity 40% (cycle 0-90)
[26] = step 20, relative humidity 50% (cycle 0-90)
[27] = step 21, relative humidity 60% (cycle 0-90)
[28] = step 22, relative humidity 70% (cycle 0-90)
[29] = step 23, relative humidity 80% (cycle 0-90)
[30] = step 24, relative humidity 90% (cycle 0-90)
[31] = step 25, relative humidity 0% (second cycle 90-0)
[32] = step 26, relative humidity (starting value)

## CCCCC(=O)N(Cc1ccc(-c2ccccc2-c2nn[n-]n2)cc1)C(C(=O)[O-])C(C)C.[Ca+2] (centres unmarked) [calcium salt of valsartan]
[1]
  intrinsic dissolving rates: improved values over those of valsartan
[2]
  release from a film-coated tablet: 100%

## CCCCC(=O)N(Cc1ccc(-c2ccccc2-c2nn[n-]n2)cc1)C(C(=O)[O-])C(C)C.[K+].[K+] (centres unmarked) [di-potassium salt of valsartan]
[1]
  intrinsic dissolving rates: improved values over those of valsartan

## CCCCC(=O)N(Cc1ccc(-c2ccccc2-c2nnn[nH]2)cc1)[C@H](C(=O)[O-])C(C)C.CCCCC(=O)N(Cc1ccc(-c2ccccc2-c2nnn[nH]2)cc1)[C@H](C(=O)[O-])C(C)C.O.O.O.O.O.O.[Mg+2] [hexahydrate of the magnesium salt of (S)-N-(1-carboxy-2-methylprop-1-yl)-N-pentanoyl-N-[2′-(1H-tetrazol-5-yl)biphenyl-4-ylmethyl]-amine]
[3]; 25° C.
  weight loss or water loss in %: 0%
[3]; 50° C.
  weight loss or water loss in %: 1.2%
[3]; 75° C.
  weight loss or water loss in %: 4.2%
[3]; 100° C.
  weight loss or water loss in %: 11.0%
[3]; 125° C.
  weight loss or water loss in %: 16.7%
[3]; 150° C.
  weight loss or water loss in %: 17.7%
[3]; 175° C.
  weight loss or water loss in %: 18.3%
[3]; 200° C.
  weight loss or water loss in %: 18.5%
[3]; 225° C.
  weight loss or water loss in %: 18.7%
[3]; 250° C.
  weight loss or water loss in %: 18.9%
[3]; 275° C.
  weight loss or water loss in %: 19.3%
[4]; range of 20 to 80% relative humidity, measurement error about 0.1%
  water absorption or water loss (overall finding): weak, reproducible water absorption or water loss
[4]; [7]
  water absorption or loss in %: 0.06%
[4]; [8]
  water absorption or loss in %: 0.14%
[4]; [9]
  water absorption or loss in %: 0.19%
[4]; [10]
  water absorption or loss in %: 0.25%
[4]; [11]
  water absorption or loss in %: 0.41%
[4]; [12]
  water absorption or loss in %: 0.58%
[4]; [13]
  water absorption or loss in %: 0.32%
[4]; [14]
  water absorption or loss in %: 0.22%
[4]; [15]
  water absorption or loss in %: 0.14%
[4]; [16]
  water absorption or loss in %: 0.08%
[4]; [17]
  water absorption or loss in %: 0.16%
[4]; [18]
  water absorption or loss in %: −0.03%
[4]; [19]
  water absorption or loss in %: −0.07%
[4]; [20]
  water absorption or loss in %: −0.12%
[4]; [21]
  water absorption or loss in %: −4.3%
[4]; [22]
  water absorption or loss in %: −0.79%
[4]; [23]
  water absorption or loss in %: −0.14%
[4]; [24]
  water absorption or loss in %: −0.05%
[4]; [25]
  water absorption or loss in %: 0.02%
[4]; [26]
  water absorption or loss in %: 0.09%
[4]; [27]
  water absorption or loss in %: 0.14%
[4]; [28]
  water absorption or loss in %: 0.20%
[4]; [29]
  water absorption or loss in %: 0.28%
[4]; [30]
  water absorption or loss in %: 0.51%
[4]; [31]
  water absorption or loss in %: −3.68%
[4]; [32]
  water absorption or loss in %: −0.01%
[5]
  water content in stability test: remains constant

## (S)-N-(1-carboxy-2-methyl-prop-1-yl)-N-pentanoyl-N-[2′-(1H-tetrazol-5-yl)-biphenyl-4-ylmethyl]-amine calcium salt tetrahydrate
[3]; 25° C.
  weight loss or water loss in %: 0%
[3]; 50° C.
  weight loss or water loss in %: 0%
[3]; 75° C.
  weight loss or water loss in %: 0.5%
[3]; 100° C.
  weight loss or water loss in %: 3.5%
[3]; 125° C.
  weight loss or water loss in %: 10.2%
[3]; 150° C.
  weight loss or water loss in %: 12.4%
[3]; 175° C.
  weight loss or water loss in %: 12.8%
[3]; 200° C.
  weight loss or water loss in %: 12.9%
[3]; 225° C.
  weight loss or water loss in %: 12.9%
[3]; 250° C.
  weight loss or water loss in %: 13.0%
[3]; 275° C.
  weight loss or water loss in %: 13.2%
[4]; 0 to 90% relative humidity, measurement error about 0.1%
  water absorption or loss (overall finding): no measurable water absorption or loss
[4]; [7]
  water absorption or loss in %: 0.04%
[4]; [8]
  water absorption or loss in %: 0.04%
[4]; [9]
  water absorption or loss in %: 0.03%
[4]; [10]
  water absorption or loss in %: 0.02%
[4]; [11]
  water absorption or loss in %: 0.02%
[4]; [12]
  water absorption or loss in %: 0.00%
[4]; [13]
  water absorption or loss in %: 0.02%
[4]; [14]
  water absorption or loss in %: 0.02%
[4]; [15]
  water absorption or loss in %: 0.02%
[4]; [16]
  water absorption or loss in %: 0.02%
[4]; [17]
  water absorption or loss in %: 0.02%
[4]; [18]
  water absorption or loss in %: 0.01%
[4]; [19]
  water absorption or loss in %: 0.01%
[4]; [20]
  water absorption or loss in %: 0.00%
[4]; [21]
  water absorption or loss in %: −0.01%
[4]; [22]
  water absorption or loss in %: 0.00%
[4]; [23]
  water absorption or loss in %: 0.00%
[4]; [24]
  water absorption or loss in %: 0.00%
[4]; [25]
  water absorption or loss in %: 0.00%
[4]; [26]
  water absorption or loss in %: 0.00%
[4]; [27]
  water absorption or loss in %: 0.01%
[4]; [28]
  water absorption or loss in %: 0.00%
[4]; [29]
  water absorption or loss in %: −0.01%
[4]; [30]
  water absorption or loss in %: −0.02%
[4]; [31]
  water absorption or loss in %: −0.02%
[4]; [32]
  water absorption or loss in %: 0.00%
[5]
  water content in stability test: remains constant

## (S)-N-(1-carboxy-2-methyl-prop-1-yl)-N-pentanoyl-N-[2′-(1H-tetrazol-5-yl)-biphenyl-4-ylmethyl]-amine dipotassium salt [Example 4]
[6]
  hygroscopicity: hygroscopic

## (S)-N-(1-carboxy-2-methyl-prop-1-yl)-N-pentanoyl-N-[2′-(1H-tetrazol-5-yl)-biphenyl-4-ylmethyl]-amine disodium salt [Example 5]
[6]
  hygroscopicity: hygroscopic

## Bis-dibutylammonium Salt of Valsartan [Example 16]
[6]
  hygroscopicity: slightly hygroscopic

## Hydrate of Valsartan Disodium Salt (2.4 ±1.0 Mole H2O) [Example 11]
[6]
  hygroscopicity: slightly hygroscopic

## Hydrate of the Valsartan Dipotassium Salt (3.4±1.0 mole H2O) [Example 12]
[6]
  hygroscopicity: slightly hygroscopic
